Experimental data as given in patent US11746098B2, “Proteasome activity enhancing compounds” (Proteostasis Therapeutics, Inc., priority 2018, dated 2023).

Target: USP14 (Homo sapiens, UniProt P54578)
Experiment: USP14 Inhibition Assay
Assay type: biochemical
Settings: average value from a minimum of two experimental determinations, read-out: IC50 Category
Description: The activity of the compound described herein to inhibit USP14 can be measured using previously described methodology [B. H. Lee et al. Nature 2010, 467 (9), 179, the contents of which are expressly incorporated by reference herein].
Example 6: USP14 Inhibition Assay

Row | IC50 [µM] | SMILES
1 | > 5 | Cc1cc(Cl)cc(C)c1-n1ccc(C(=O)CN2CCCC2)c1 [Compound 23, 1-(1-(4-Chloro-2,6-dimethylphenyl)-1H-pyrrol-3-yl)-2-(pyrrolidin-1-yl)ethanone]
2 | > 5 | COc1cc(NS(=O)(=O)c2ccc(-n3c(C)cc(C(=O)CN4CCC(O)CC4)c3C)cc2)nc(OC)n1 [Compound 2, N-(2,6-Dimethoxypyrimidin-4-yl)-4-(3-(2-(4-hydroxypiperdin-1-yl)acetyl)-2,5-dimethyl-1H-pyrrol-1-yl)benzenesulfonamide]
3 | > 5 | Cc1cc(C(=O)CN2CCC[C@@H]2C(N)=O)c(C)n1-c1ccc(Cl)cc1 [Compound 3, (R)-1-(2-(1-(4-Chlorophenyl)-2,5-dimethyl-1H-pyrrol-3-yl)-2-oxoethyl)pyrrolidine-2-carboxamide]
4 | > 5 | Cc1cc(C(=O)CN2CCCCC2)c(C)n1[C@H]1CC[C@@H](C#N)CC1 [Compound 105, cis-(2,5-Dimethyl-3-(2-(piperidin-1-yl)acetyl)-1H-pyrrol-1-yl)cyclohexanecarbonitrile]
5 | > 5 | Cc1cc(C(=O)CN2CCCCC2)c(C)n1[C@H]1CC[C@@H](C(=O)O)CC1 [Compound 46, cis-4-(2,5-Dimethyl-3-(2-(piperidin-1-yl)acetyl)-1H-pyrrol-1-yl)cyclohexanecarboxylic acid]

Second part, the compound before the results:

Row | SMILES | IC50 [µM]
6 | Cc1cc(Cl)cc(C)c1-n1cccc1C(=O)CN1CCC(O)CC1 [Compound 29, 1-(1-(4-Chloro-2,6-dimethylphenyl)-1H-pyrrol-2-yl)-2-(4-hydroxypiperidin-1-yl)ethanone] | > 5
7 | Cc1cc(C(=O)CN2CCCC2CCO)c(C)n1-c1ccc(Cl)cc1 (stereo not shown) [Compound 50, 1-(1-(4-Chlorophenyl)-2,5-dimethyl-1H-pyrrol-3-yl)-2-(2-(2-hydroxyethyl)pyrrolidin-1-yl)ethanone] | 0.5 to 5
8 | Cc1cc(C(=O)CN2CCCC2)c(C)n1-c1cccc2ccccc12 [Compound 8, 1-(2,5-Dimethyl-1-(naphthalen-1-yl)-1H-pyrrol-3-yl)-2-(pyrrolidin-1-yl)ethanone] | > 5
9 | Cc1c(C(=O)CN2CCCCC2)c(C)n(-c2ccc(Cl)cc2)c1C [Compound 137, 1-(1-(4-Chlorophenyl)-2,4,5-trimethyl-1H-pyrrol-3-yl)-2-(piperidin-1-yl)ethanone] | 0.5 to 5
10 | Cc1cc(C(=O)CN2CCC(OCC(=O)NC(C)(C)C)CC2)c(C)n1-c1ccc(Cl)cc1 [Compound 84, N-(tert-Butyl)-2-((1-(2-(1-(4-chlorophenyl)-2,5-dimethyl-1H-pyrrol-3-yl)-2-oxoethyl)piperidin-4-yl)oxy)acetamide] | < 0.5
11 | Cc1cc(C(=O)CN2CCCCC2)c(C)n1-c1cc(F)cc(F)c1 [Compound 14, 1-(1-(3,5-Difluorophenyl)-2,5-dimethyl-1H-pyrrol-3-yl)-2-(piperidin-1-yl)ethanone] | > 5
12 | Cc1cc(Cl)cc(C)c1-n1ccc(C(=O)CN2CCCCC2)c1 [Compound 26, 1-(1-(4-Chloro-2,6-dimethylphenyl)-1H-pyrrol-3-yl)-2-(piperidin-1-yl)ethanone] | > 5
13 | CC#Cc1ccc(-n2c(C)cc(C(=O)CN3CCCCC3)c2C)cc1 [Compound 136, 1-(2,5-Dimethyl-1-(4-(prop-1-yn-1-yl)phenyl)-1H-pyrrol-3-yl)-2-(piperidin-1-yl)ethanone] | 0.5 to 5
14 | COc1cc(NS(=O)(=O)c2ccc(-n3c(C)cc(C(=O)CN4CCCC4)c3C)cc2)nc(OC)n1 [Compound 4, N-(2,6-Dimethoxypyrimidin-4-yl)-4-(2,5-dimethyl-3-(2-(pyrrolidin-1-yl)acetyl)-1H-pyrrol-1-yl)benzenesulfonamide] | > 5
15 | Cc1cc(C(=O)CN2CCCCC2)c(C)n1[C@H]1CC[C@H](C(=O)O)CC1 [Compound 121, trans-4-(2,5-Dimethyl-3-(2-(piperidin-1-yl)acetyl)-1H-pyrrol-1-yl)cyclohexane-1-carboxylic acid] | > 5
16 | Cc1cc(C(=O)CN2CCCCC2)c(C)n1-c1ccc(F)c(F)c1 [Compound 69, 1-(1-(3,4-Difluorophenyl)-2,5-dimethyl-1H-pyrrol-3-yl)-2-(piperidin-1-yl)ethanone] | 0.5 to 5
